Laboratory results: patent publication US20250049972A1, “METHOD OF DETECTING PROSTATE CANCER IN A HUMAN SUBJECT USING A Cu 64 PSMA I&T INJECTION” (Curium US LLC, priority 2023, published 2025)

Legend:
[1] = test system: prostate cancer lesions; assay: Phase 2 PET/CT imaging: CLR, CDR and per patient sensitivity/specificity vs Composite Reference Standard, 3 blinded readers; assay type: in vivo, human; conditions: for Average Patient CDR: Average Correct Detection Rate (Standard Deviation) / Correct Localization Rate, region level / Number of Lesions Correctly Identified: IME Population; for Average Patient CDR: Average Correct Detection Rate (Standard Deviation) / Correct Localization Rate, region level: Phase 2; for Correct Localization Rate (region level CLR) / Number of Segments Correctly Identified / Pa Patient Specificity: Correct Patient Detection Rate / Pet Patient Sensitivity: Correct Patient Detection Rate: ITI Population; for Correct Localization Rate (region level CLR): 7-9 mCi; for Number of Lesions Correctly Identified: of 30 lesions truth; for Number of Segments Correctly Identified: of 30 segments truth
Protocol: A study was conducted to evaluate the use of Cu-64 PSMA I&T injection in imaging human patients with recurrent metastatic prostate cancer. The primary objectives were to determine efficacy on region and patient level and to assess safety for use with humans. The secondary objective was to assess image quality or AIQ using CLR and CDR. The study had two co-primary endpoints. First, region-level CLR defined as the percentage of regions containing at least one true PET positive lesion, with exactly localized correspondence between PET/CT imaging and the Composite Reference Standard regardless of any co-existent false positive findings, within the same region, out of all regions containing at least one PET positive finding. Second, patient-level CDR defined as the percentage of patients who have at least one true PET positive lesion, with exactly localized correspondence between PET imaging and the Composite Reference Standard, regardless of any co-existent false positive findings, out of all patients who are scanned. Both endpoints were measured for 1 and 4 hours post injection using PET scans. The study was powered to detect a CLR (detection rate) of greater than 60%. A sample size of 26 patients has an 80% power of detecting a true sensitivity of 85%. Key inclusion criteria included histologically proven prostate adenocarcinoma, prior radical prostatectomy, radiation therapy with curative intent, disease recurrence based on defined rise in PSA, and at least one extra prostatic site of disease suspected based on prior imaging or diagnosed by biopsy. Patients were administered 7-9 mCi Cu-64 PSMA I&T injection and then PET and/or CT images were acquired for all patients starting at approximately […] and 4 hours±30 minutes post Cu-64 PSMA I&T injection. Indeed, the images were collected from an approximate range of 45 minutes to 4 hours and 30 minutes post injection for all patients. The PET and CT images were interpreted independently by three readers blinded to all patient information. Each patient study was assessed and scored for the detection of prostate cancer. Specifically, each reader categorized images as “Disease” or “No Disease” based only on tumor uptake of Cu-64 PSMA-I&T in each of the five regions: (1) prostate bed or prostate gland, (2) lymph nodes (pelvic), (3) lymph nodes (extra pelvic), (4) bone, and (5) viscera/soft tissue. Analysis of the reads were used for determination of the CLR and CDR by comparison to the Composite Reference Standard. The Composite Reference Standard was defined as local histopathology obtained within 60 days before or following Cu-64 PSMA I&T PET/CT, or, if histopathology was not available, anatomical correlation of conventional image findings (e.g., targeted MRI or CT or any FDA-approved PET PSMA agent) obtained within 60 days before or following Cu-64 PSMA I&T PET/CT. A statistical threshold (with a lower bound of the 95% confidence interval) of 60% was prespecified for both CLR and CDR endpoints. The Phase 2 portion of the study included a separate group of 26 patients with biochemical recurrent PC. The dose for the Phase 2 portion of the study was 9 mCi with an acceptable range of 7 to 9 mCi. PET/CT images were acquired for all patients at 1 hour (±15 minutes) and 4 hours (±0.5 hours) post injection. The PET/CT images were interpreted independently by 3 readers blinded to all patient information. Each patient was assessed and scored for the detection of prostate cancer lesions. Specifically, each reader categorized images as “Disease” or “No Disease” based only on tumor uptake of copper Cu-64 PSMA I&T in each of 5 regions: (1) prostate bed or prostate gland, (2) lymph nodes (pelvic), (3) lymph nodes (extra pelvic), (4) bone, and (5) viscera/soft tissue. Analysis of the reads was used for determination of the CLR and CDR for 1 hour and 4 hours post-injection imaging of copper Cu-64 PSMA I&T PET/CT by comparison to a composite reference standard collected for each enrolled patient. […]

[2] = Phase 2 diagnostic image quality, 3-point scale, independent readers; assay type: in vivo, human
Protocol: Diagnostic quality was assessed for all scans using a 3-point scale and then percentages for each category were summarized for each reader and time point. No formal hypothesis testing was performed.

[3] = all 3 readers at both 1 and 4 hours

With `O=C(O)CC[C@H](NC(=O)N[C@@H](CCCCNC(=O)CCCCCCC(=O)NCCCC[C@@H](NC(=O)[C@@H](Cc1ccccc1)NC(=O)[C@@H](Cc1ccc(O)c(I)c1)NC(=O)CC[C@H](C(=O)O)N1CCN(CC(=O)O)CCN(CC(=O)O)CCN(CC(=O)O)CC1)C(=O)O)C(=O)O)C(=O)O` [Cu-64 PSMA I&T, 64 Cu-(3S, 7S, 26R, 29R, 32R, 37R)-29-benzyl-32(4-hydroxy-3-iodobenzyl)-5, 13, 20, 28, 31, 34-hexaoxo-37-(4,7,10-tris(carboxymethyl)-1,4,7, 10-tetraazacyclododecan-1-yl)-4,6, 12, 21, 27, 30, 33-heptaazaheptatriacontane-1,3,7, 26, 37-pentacarboxylic acid, metal not drawn] the “Average Patient CDR: Average Correct Detection Rate (Standard Deviation)” value (“Average Patient CDR … (Standard Deviation)” for short) ([1]; READER 1, 1 Hour Image) was 84.21% (33.552%), the “Correct Localization Rate, region level” value ([1]; READER 1, 1 Hour Image) was 86.67% and the “Correct Localization Rate (region level CLR)” value ([1]; READER 1, 1 Hour Image) was 86.67%. The “Number of Lesions Correctly Identified” value ([1]; READER 1, 1 Hour Image) was 26, the “Number of Segments Correctly Identified” value ([1]; READER 1, 1 Hour Image) was 26 and the “Pa Patient Specificity: Correct Patient Detection Rate” value (from here on “Pa Patient Specificity”) ([1]; READER 1, 1 Hour image) was 100.00%. The “Pet Patient Sensitivity: Correct Patient Detection Rate” value (“Pet Patient Sensitivity” for short) ([1]; READER 1, 1 Hour image) was 100.00%, the “Average Patient CDR … (Standard Deviation)” value ([1]; READER 1, 4 Hour Image) was 84.21% (33.552%) and the “Correct Localization Rate, region level” value ([1]; READER 1, 4 Hour Image) was 86.67%. For the same compound, the “Pa Patient Specificity” value ([1]; READER 1, 4 Hour Image) was 100.00%, the “Pet Patient Sensitivity” value ([1]; READER 1, 4 Hour Image) was 100.00% and the “Correct Localization Rate (region level CLR)” value ([1]; READER 1, 4 Hour Image) was 86.67%. The “Number of Lesions Correctly Identified” value ([1]; READER 1, 4 Hour Image) was 26, the “Number of Segments Correctly Identified” value ([1]; READER 1, 4 Hour Image) was 26 and the “Average Patient CDR … (Standard Deviation)” value ([1]; READER 2, 1 Hour Image) was 77.19% (38.172%). For the same compound, the Correct Localization Rate, region level ([1]; READER 2, 1 Hour Image) was 76.7%, the “Pa Patient Specificity” value ([1]; READER 2, 1 Hour Image) was 100.00% and the “Pet Patient Sensitivity” value ([1]; READER 2, 1 Hour Image) was 100.00%. For the same compound, the “Correct Localization Rate (region level CLR)” value ([1]; READER 2, 1 Hour Image) was 76.67%, the “Number of Lesions Correctly Identified” value ([1]; READER 2, 1 Hour Image) was 23 and the “Number of Segments Correctly Identified” value ([1]; READER 2, 1 Hour Image) was 26. The “Average Patient CDR … (Standard Deviation)” value ([1]; READER 2, 4 Hour Image) was 79.82% (37.916%), the “Correct Localization Rate, region level” value ([1]; READER 2, 4 Hour Image) was 80.00% and the “Pa Patient Specificity” value ([1]; READER 2, 4 Hour Image) was 100.00%. The “Pet Patient Sensitivity” value ([1]; READER 2, 4 Hour Image) was 100.00%, the “Correct Localization Rate (region level CLR)” value ([1]; READER 2, 4 Hour Image) was 80.00% and the “Number of Lesions Correctly Identified” value ([1]; READER 2, 4 Hour Image) was 24. For the same compound, the “Number of Segments Correctly Identified” value ([1]; READER 2, 4 Hour Image) was 24, the “Average Patient CDR … (Standard Deviation)” value ([1]; READER 3, 1 Hour Image) was 80.70% (35.252%) and the “Correct Localization Rate, region level” value ([1]; READER 3, 1 Hour Image) was 80.110%. For the same compound, the “Pa Patient Specificity” value ([1]; READER 3, 1 Hour Image) was 100.00%, the “Pet Patient Sensitivity” value ([1]; READER 3, 1 Hour Image) was 100.00% and the “Correct Localization Rate (region level CLR)” value ([1]; READER 3, 1 Hour Image) was 80.00%. The “Number of Lesions Correctly Identified” value ([1]; READER 3, 1 Hour Image) was 24, the “Number of Segments Correctly Identified” value ([1]; READER 3, 1 Hour Image) was 24 and the “Average Patient CDR … (Standard Deviation)” value ([1]; READER 3, 4 Hour Image) was 80.70% (35.252%). The “Correct Localization Rate, region level” value ([1]; READER 3, 4 Hour Image) was 80.00%, the Pa Patient Specificity: Correct Patient Detection Rate ([1]; READER 3, 4 Hour Image) was 100% and the “Pet Patient Sensitivity” value ([1]; READER 3, 4 Hour Image) was 100.00%. The “Correct Localization Rate (region level CLR)” value ([1]; READER 3, 4 Hour Image) was 80.00%, the “Number of Lesions Correctly Identified” value ([1]; READER 3, 4 Hour Image) was 24 and the “Number of Segments Correctly Identified” value ([1]; READER 3, 4 Hour Image) was 24. For the same compound, the “patient level CDR vs prespecified threshold” value [1, 3] was greater than 60%, the “region level CLR vs prespecified threshold” value [1, 3] was greater than 60% and the “correct patient detection rate (per patient sensitivity and specificity)” value ([1]; all patients, both 1 and 4 hour images) was 100.00%. For the same compound, the “patients with no lesions detected on the PET/CT scan” value ([1]; of 26 patients) was 7, the “patients with positive lesions on the PET/CT scan” value ([1]; of 26 patients) was 19 and the “Image Quality Acceptable, patients (%)” value ([2]; Reader 1, 1 Hour Post Dose) was 26 (100.00%). The “Image Quality Acceptable, patients (%)” value ([2]; Reader 1, 4 Hours Post Dose) was 26 (100.00%), the “Image Quality Acceptable, patients (%)” value ([2]; Reader 2, 1 Hour Post Dose) was 24 (92.31%) and the “Image Quality Acceptable, patients (%)” value ([2]; Reader 2, 4 Hours Post Dose) was 26 (100.00%). The “Image Quality Acceptable, patients (%)” value ([2]; Reader 3, 1 Hour Post Dose) was 26 (100.00%), the “Image Quality Acceptable, patients (%)” value ([2]; Reader 3, 4 Hours Post Dose) was 26 (100.00%) and the “image quality as assessed by the independent readers” value ([2]; at both 1 and 4 hours) was “acceptable”.
